Three compounds from patent US4275067A, “Decarboxyclavulanic acid thio ethers, their preparation and use” (Beecham Group Limited, priority 1977, dated 1981) can be followed below.

For assay [1], the system named is Staph. aureus Russell and Klebsiella aerogenes E70. The assay can be described thus: Antibacterial synergy when combined with ampicillin (overall statement). In kind it is cell-based.
In assay [2] the target is β-lactamase (Pseudomonas aeruginosa A). The assay is described as follows: β-lactamase inhibition. In kind it is biochemical. Particulars: β-lactamase from Pseudomonas aeruginosa A. On the procedure:
(§1) I50 values were determined using the process described in Belgian Pat. No. 827,926.

Assay [3] deals with β-lactamase (Proteus mirabilis C 889). The assay is described as follows: β-lactamase inhibition. Type of assay: biochemical. The note with it: β-lactamase from Proteus mirabilis C 889. The protocol: as §1
The target of assay [4] is T1, β-lactamase (Staph. aureus Russell) (Staphylococcus aureus, UniProt P00807).
T1 construct: Source of β-lactamase; endogenous in cells; host or cells: Staph. aureus Russell
T1 sequence (P00807 25-281): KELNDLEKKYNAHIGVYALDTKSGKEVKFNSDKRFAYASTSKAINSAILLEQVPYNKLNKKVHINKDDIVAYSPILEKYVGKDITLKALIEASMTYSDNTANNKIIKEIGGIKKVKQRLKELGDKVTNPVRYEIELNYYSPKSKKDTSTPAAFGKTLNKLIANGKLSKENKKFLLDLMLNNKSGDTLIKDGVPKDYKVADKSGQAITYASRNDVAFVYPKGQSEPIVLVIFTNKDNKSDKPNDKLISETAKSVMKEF
The assay can be described thus: β-lactamase inhibition. Type of assay: biochemical. The note with it: β-lactamase from Staph. aureus Russell; read-out: I50 (converted). On the procedure: as §1

The target in assay [5] is T2, β-lactamase (Ps. aeruginosa Dalgleish) (Pseudomonas aeruginosa, UniProt P16897).
T2 construct: Source of β-lactamase; endogenous in cells; host or cells: Ps. aeruginosa Dalgleish
T2 sequence (P16897 18-288): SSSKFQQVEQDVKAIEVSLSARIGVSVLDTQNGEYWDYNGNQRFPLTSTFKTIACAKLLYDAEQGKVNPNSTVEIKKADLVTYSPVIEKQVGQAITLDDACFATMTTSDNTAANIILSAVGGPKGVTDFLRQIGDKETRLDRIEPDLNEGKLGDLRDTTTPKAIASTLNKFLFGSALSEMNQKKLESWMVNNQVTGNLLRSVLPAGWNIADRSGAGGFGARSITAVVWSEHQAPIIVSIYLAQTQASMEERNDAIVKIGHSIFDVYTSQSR
The assay can be described thus: β-lactamase inhibition. Type of assay: biochemical. The note with it: β-lactamase from Ps. aeruginosa Dalgleish; read-out: I50 (converted). On the procedure: as §1

The target in assay [6] is T3, β-lactamase (E. coli JT 4) (Escherichia coli, UniProt P62593).
T3 construct: Source of β-lactamase; endogenous in cells; host or cells: E. coli JT 4
T3 sequence (P62593 24-286 limits assumed): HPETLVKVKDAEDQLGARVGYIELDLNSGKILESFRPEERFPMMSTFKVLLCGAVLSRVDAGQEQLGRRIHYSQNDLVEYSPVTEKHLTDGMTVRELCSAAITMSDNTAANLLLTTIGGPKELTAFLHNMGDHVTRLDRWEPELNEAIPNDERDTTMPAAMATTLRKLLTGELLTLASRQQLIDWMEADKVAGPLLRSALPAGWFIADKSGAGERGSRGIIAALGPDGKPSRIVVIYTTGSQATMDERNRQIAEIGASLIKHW
The assay is described as follows: β-lactamase inhibition. Particulars: β-lactamase from E. coli JT 4; read-out: I50 (converted). Type of assay: biochemical. On the procedure: as §1

In assay [7] the target is T4, β-lactamase (Enterobacter cloacae P 99) (Enterobacter cloacae, UniProt P05364).
T4 construct: Source of β-lactamase; endogenous in cells; host or cells: Enterobacter cloacae P 99
T4 sequence (P05364 21-381): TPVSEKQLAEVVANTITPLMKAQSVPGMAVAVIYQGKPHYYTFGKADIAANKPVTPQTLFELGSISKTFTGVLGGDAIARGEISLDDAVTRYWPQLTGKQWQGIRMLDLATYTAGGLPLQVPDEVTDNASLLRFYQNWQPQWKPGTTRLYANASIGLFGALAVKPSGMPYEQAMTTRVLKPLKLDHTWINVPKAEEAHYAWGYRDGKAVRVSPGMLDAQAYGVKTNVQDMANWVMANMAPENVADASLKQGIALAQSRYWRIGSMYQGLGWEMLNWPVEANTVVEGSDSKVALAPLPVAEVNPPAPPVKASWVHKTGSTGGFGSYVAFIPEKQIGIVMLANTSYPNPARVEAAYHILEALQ
The assay is described as follows: β-lactamase inhibition. In kind it is biochemical. The note with it: β-lactamase from Enterobacter cloacae P 99; read-out: I50 (converted). On the procedure:
as §1

A further assay concerns Saccharomyces cerevisiae. The assay is described as follows: Anti-fungal activity, microtitre method. Type of assay: cell-based. The note with it: glucosepeptone broth. From the text:
(§2) The anti-fungal activity of the compound of Example 7 was investigated using a microtitre method, with glucosepeptone broth at 1/50 and 1/500 final dilutions of inoculum. The organisms used were Candida albicans and Saccharomyces cerevisiae. The minimum inhibitory concentrations (MIC) are shown below.

A further assay has as its system Candida albicans. The assay can be described thus: Anti-fungal activity, microtitre method. The note with it: glucosepeptone broth. Type of assay: cell-based.
Text: as §2

For another assay, the system named is Staph. aureus Russell. The assay is described as follows: Antibacterial synergy with ampicillin. Type of assay: cell-based. The note with it: ampicillin without inhibitor.

Each structure is given as a SMILES string. ≈ marks a conversion by molar mass, not a printed value. Read-outs that look alike come from different tables or passages of the source. Bounds are passed on as bounds.

`O=C1C[C@H]2O/C(=C\CSc3ccccc3)CN12` [Example 1, (Z, 5R)-3-(2-Phenylthioethylidene)-4-oxa-1-azabicyclo [3.2.0]heptan-7-one]: the antibacterial synergy result in [1] is recorded as “active as antibacterial synergists”. Besides, the I50 in [2] was 2.2 µg/mL; in assay [3], 4.4 µg/mL. In addition, the IC50 in assay [4] is 1010 nM; in assay [5] it was 2430 nM; in assay [6], 1460 nM; in assay [7], 5340 nM.

Consider `COC(=O)CCSC/C=C1/CN2C(=O)C[C@H]2O1` [Example 7, (Z)-(5R)-3-[2-(2-Methoxycarbonylethylthio)ethylidene]-4-oxa-1-azabicyclo[3.2.0]hetpan-7-one], for which the MIC in the assay on Saccharomyces cerevisiae (final dilution of inoculum 1/50, read-out: minimum inhibitory concentration (MIC)) was greater than 100 µg/mL; with Saccharomyces cerevisiae (final dilution of inoculum 1/500, read-out: minimum inhibitory concentration (MIC)), 100 µg/mL (≈ 389 µM); with Candida albicans (Candida albicans, final dilution of inoculum 1/50, read-out: minimum inhibitory concentration (MIC)), 12.5 µg/mL (≈ 48.6 µM). The “minimum inhibitory concentration (MIC)” value in the assay with Candida albicans (final dilution of inoculum 1/500) was determined as 12.5 µg/mL (≈ 48.6 µM).

For the compound `CC1(C)S[C@@H]2[C@H](NC(=O)[C@H](N)c3ccccc3)C(=O)N2[C@H]1C(=O)O` [ampicillin], in the assay on Staph. aureus Russell, the MIC for ampicillin came out at 250 µg/mL.
